The source of these data is publication PMC6130710 (Pharmaceutical Biology, 2017).

Where two headings read alike, the source gives them in different places. Bounds are passed on as bounds.

What is called IC50 is the midpoint of a concentration-inhibition curve. In general, melting point refers to the temperature, or range, at which the solid turns liquid.

In data set [1] the target is T1, α-Glucosidase (EC 3.2.1.20) from Saccharomyces cerevisiae (Baker's yeast) (Saccharomyces cerevisiae, UniProt P53341).
T1 construct: purchased Sigma-Aldrich (St. Louis, MO)
T1 sequence (P53341 whole entry): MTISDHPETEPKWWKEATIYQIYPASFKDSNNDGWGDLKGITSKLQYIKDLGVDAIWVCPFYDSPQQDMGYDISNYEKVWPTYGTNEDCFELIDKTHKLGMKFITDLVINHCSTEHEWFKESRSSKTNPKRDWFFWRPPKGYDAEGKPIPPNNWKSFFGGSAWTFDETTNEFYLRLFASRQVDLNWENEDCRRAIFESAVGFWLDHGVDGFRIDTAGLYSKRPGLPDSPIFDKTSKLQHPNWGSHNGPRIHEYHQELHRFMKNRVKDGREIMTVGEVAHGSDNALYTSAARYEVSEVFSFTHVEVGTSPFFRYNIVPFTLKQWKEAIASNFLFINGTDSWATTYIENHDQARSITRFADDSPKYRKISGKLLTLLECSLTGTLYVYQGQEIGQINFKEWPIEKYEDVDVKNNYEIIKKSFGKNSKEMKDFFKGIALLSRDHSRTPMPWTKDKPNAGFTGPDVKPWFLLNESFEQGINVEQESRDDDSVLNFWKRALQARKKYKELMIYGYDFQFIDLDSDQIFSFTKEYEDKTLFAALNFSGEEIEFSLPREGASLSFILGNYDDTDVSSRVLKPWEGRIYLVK
Description: biochemical. How it is done:
(§1) 1 D and 2 D NMR spectra were recorded on a Bruker 400 AVANCE spectrometer, and the chemical shifts were reported in parts per million (ppm) using tetramethylsilane (TMS) as the internal standard. Melting points were determined on a Fisher-Johns Melting Point apparatus. Adsorbents such as silica gel 60 (Merck) were used for column and radial (chromatotron model 7924 T, Harrison Research) chromatographies. Merck silica gel 60F254 plates were used for TLC. HRESIMS spectra were obtained using a Bruker MICROTOF model mass spectrometer. UV-visible absorption spectra were recorded using a UV-2550 (SHIMADZU) UV-Vis spectrometer (Shimadzu, Kyoto, Japan). α-Glucosidase (EC 3.2.1.20) from Saccharomyces cerevisiae and 4-nitrophenyl-α-D-glucopyranoside (p-NPG) were obtained from Sigma-Aldrich (St. Louis, MO). […] Rat intestinal acetone powder was supplied by Sigma Aldrich.
The evaluation of the inhibitory activity of all compounds against yeast and rat intestinal (maltase and sucrase) α-glucosidases was applied from a previous procedure (Damsud et al. [2013]). The inhibitory effect against yeast α-glucosidase was determined using the protocol previously described. Briefly, 10 μL of sample was mixed with α-glucosidase (0.1 U/mL) in 1 mM phosphate buffer (pH 6.9) and incubated at 37 °C for 10 min. The reaction mixture was added with 1 mM p-nitrophenyl-α-D-glucopyranoside (PNPG, 50 μL) followed by additional 20 min incubation. p-Nitrophenoxide liberated from the reaction was quantified by a microplate reader (UV 405 nm) after the addition of 1 M Na2CO3 (100 μL). The percent inhibition was deduced using the following equation. (A0-A1)/A0×100 where A1 and A0 are absorbances with and without the sample, respectively.

Data set [2] has as its target rat intestinal α-glucosidase (maltase). Description: rat intestinal α-glucosidase (maltase) inhibition assay. The conditions noted are these: rat intestine; compounds, Table 2. It is filed as biochemical. How it is done: 1 D and 2 D NMR spectra were recorded on a Bruker 400 AVANCE spectrometer, and the chemical shifts were reported in parts per million (ppm) using tetramethylsilane (TMS) as the internal standard. Melting points were determined on a Fisher-Johns Melting Point apparatus. Adsorbents such as silica gel 60 (Merck) were used for column and radial (chromatotron model 7924 T, Harrison Research) chromatographies. Merck silica gel 60F254 plates were used for TLC. HRESIMS spectra were obtained using a Bruker MICROTOF model mass spectrometer. UV-visible absorption spectra were recorded using a UV-2550 (SHIMADZU) UV-Vis spectrometer (Shimadzu, Kyoto, Japan). α-Glucosidase (EC 3.2.1.20) from Saccharomyces cerevisiae and 4-nitrophenyl-α-D-glucopyranoside (p-NPG) were obtained from Sigma-Aldrich (St. Louis, MO). Acarbose was obtained from Bayer Vitol Leverkusen, Germany. Rat intestinal acetone powder was supplied by Sigma Aldrich.
(§2) Moreover, previous procedure (Damsud et al. [2013]) was also applied to determine inhibitory activity of isolated compounds against intestinal α-glucosidases (maltase and sucrase). Briefly, 10 μL of the test sample and substrate solution (maltose: 10 mM, 20 μL; sucrose: 100 mM, 20 μL, respectively) in 0.1 M phosphate buffer (pH 6.9) were incubated at 37 °C (20 min for maltase and 60 min for sucrase). The mixture was discontinued in boiling water for 10 min, and glucose released from the reaction was converted to quinoneimine using a commercial Glu Kit (Human, Germany). The absorbance of final product was determined at 503 nm, and percent inhibition was calculated using the aforementioned equation.

In data set [3] the target is T2, rat intestinal α-glucosidase (sucrase) (Rattus norvegicus, UniProt P23739).
T2 construct: tissue Sigma Aldrich; host or cells: rat intestinal acetone powder
T2 sequence (P23739 1014-1841 limits assumed): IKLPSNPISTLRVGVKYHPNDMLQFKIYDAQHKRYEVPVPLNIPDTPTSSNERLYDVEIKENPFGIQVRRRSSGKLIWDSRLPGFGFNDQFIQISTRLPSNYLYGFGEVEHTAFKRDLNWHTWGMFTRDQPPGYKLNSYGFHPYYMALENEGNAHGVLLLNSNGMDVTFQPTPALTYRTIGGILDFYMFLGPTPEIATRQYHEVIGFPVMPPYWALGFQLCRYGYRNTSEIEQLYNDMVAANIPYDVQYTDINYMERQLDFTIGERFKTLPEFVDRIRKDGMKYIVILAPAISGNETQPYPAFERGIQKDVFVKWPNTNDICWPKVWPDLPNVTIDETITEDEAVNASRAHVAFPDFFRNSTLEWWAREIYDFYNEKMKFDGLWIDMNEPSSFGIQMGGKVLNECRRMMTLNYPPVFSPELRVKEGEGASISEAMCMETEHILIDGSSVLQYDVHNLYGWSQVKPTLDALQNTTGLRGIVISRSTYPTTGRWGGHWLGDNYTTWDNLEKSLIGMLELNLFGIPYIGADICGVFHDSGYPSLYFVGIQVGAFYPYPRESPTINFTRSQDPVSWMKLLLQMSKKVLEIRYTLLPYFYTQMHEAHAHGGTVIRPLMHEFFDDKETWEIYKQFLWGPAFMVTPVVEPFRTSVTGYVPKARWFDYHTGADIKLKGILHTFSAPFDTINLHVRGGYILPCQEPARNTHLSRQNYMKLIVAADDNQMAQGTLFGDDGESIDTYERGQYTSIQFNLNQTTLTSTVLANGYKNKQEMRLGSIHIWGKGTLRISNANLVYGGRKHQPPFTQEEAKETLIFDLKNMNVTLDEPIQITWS
T2 sequence (P23739 1-1013 partner limits assumed): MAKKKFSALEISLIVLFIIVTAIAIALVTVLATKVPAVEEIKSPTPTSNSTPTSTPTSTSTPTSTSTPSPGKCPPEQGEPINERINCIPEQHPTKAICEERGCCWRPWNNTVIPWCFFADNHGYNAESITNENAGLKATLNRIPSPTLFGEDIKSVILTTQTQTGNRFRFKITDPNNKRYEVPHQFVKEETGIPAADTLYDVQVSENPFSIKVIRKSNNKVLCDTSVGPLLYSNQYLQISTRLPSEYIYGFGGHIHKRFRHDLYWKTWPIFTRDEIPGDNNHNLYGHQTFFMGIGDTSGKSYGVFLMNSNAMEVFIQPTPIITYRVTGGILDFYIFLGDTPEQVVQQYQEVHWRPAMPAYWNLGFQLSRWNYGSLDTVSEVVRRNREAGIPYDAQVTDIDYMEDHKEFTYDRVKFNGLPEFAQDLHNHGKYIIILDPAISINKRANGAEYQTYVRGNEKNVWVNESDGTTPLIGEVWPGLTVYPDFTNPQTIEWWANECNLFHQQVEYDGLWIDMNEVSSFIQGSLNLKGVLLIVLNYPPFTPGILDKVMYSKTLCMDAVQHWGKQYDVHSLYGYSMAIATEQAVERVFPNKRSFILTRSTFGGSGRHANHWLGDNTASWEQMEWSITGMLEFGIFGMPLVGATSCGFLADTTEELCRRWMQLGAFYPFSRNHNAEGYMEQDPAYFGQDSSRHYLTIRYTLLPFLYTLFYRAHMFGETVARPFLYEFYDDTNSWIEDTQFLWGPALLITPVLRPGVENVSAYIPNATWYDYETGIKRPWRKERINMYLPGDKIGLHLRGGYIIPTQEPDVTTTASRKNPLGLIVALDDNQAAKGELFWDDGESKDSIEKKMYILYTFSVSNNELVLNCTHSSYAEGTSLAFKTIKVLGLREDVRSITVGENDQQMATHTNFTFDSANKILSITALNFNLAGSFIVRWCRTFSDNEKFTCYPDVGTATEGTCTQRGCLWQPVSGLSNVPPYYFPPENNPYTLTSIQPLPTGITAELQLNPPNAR
Description: rat intestinal α-glucosidase (sucrase) inhibition assay. The conditions noted are these: rat intestine; compounds, Table 2. It is filed as biochemical. The procedure: as §1, §2

Data set [4] can be described thus: DPPH radical scavenging activity. To be noted: compounds, Table 2. The procedure: The antioxidant activity of the extract was evaluated through the free radical scavenging effect on 2,2′-diphenyl-1-picrylhydrazyl (DPPH) (Sigma) radical as previously reported (Yen & Hsieh [1997]) with slight modifications. 100 μL of 0.10 mM DPPH ethanolic solution was added to 20 μL of the sample with various concentrations. The mixture was thoroughly mixed and kept in the dark for 30 min. The absorbance was measured at 517 nm using a Sunrise microplate reader spectrophotometer.

The next data set concerns the target T3, yeast α-glucosidase (Saccharomyces cerevisiae, UniProt P53341).
T3 construct: purchased Sigma-Aldrich (St. Louis, MO)
As to the kind of experiment: enzyme kinetic study (Lineweaver–Burk plots) against yeast α-glucosidase. It is filed as biochemical. An excerpt:
Figure 2S. Lineweaver-Burk plots for inhibitory activity of compound 2 against yeast α- […]
Figure 3S. Secondary plot of slope vs [I] for deduction of Ki of compound 2 against yeast α- […]
Figure 4S. Secondary plot of intercept vs [I] for deduction of K′i of compound 2 against yeast […]
Figure 5S. The hydrophobic analysis of compounds 1 (A) and 2 (B). The H-bond interactions were shown as green dotted lines and the hydrophobic interactions with surrounding amino acids are shown as arcs with spokes radiating towards the inhibitor. These schematic diagrams were generated using LigPlot+ software (Laskowski & Swindells, 2011).
Ahmad FBH, Moghaddam MG, Basri M, Abdul Rahman MB. 2010. Anticancer activity of 3-O-acylated betulinic acid derivatives obtained by enzymatic synthesis. Biosci […]

[5] abbreviates: compounds, Table 2, read-out: IC50 Baker's yeast α-glucosidase.

T3 sequence (P53341 whole entry): as the sequence (P53341 whole entry) above

Regarding `C=C(C)[C@@H]1CC[C@]2(C(=O)O)CC[C@]3(C)[C@H](CC[C@@H]4[C@@]5(C)CC[C@H](O)C(C)(C)[C@@H]5CC[C@]43C)[C@@H]12` [Compound 2, betunilic acid], the IC50 in data set [1] (setting [5]) was 0.0163 ± 0.00203 mM; in data set [1] (restated in mM in docking section, read-out: experimental IC50 yeast α-glucosidase), 0.016 mM; in data set [2], greater than 3 mM; in data set [3], greater than 3 mM; in data set [4] it was greater than 10 mM. Besides, the “IC50 DPPH” value in data set [4] is recorded as “no activity”. Moreover, the mode of inhibition result at yeast α-glucosidase (Lineweaver–Burk plots, 0.063 and 1.3 mM of inhibitor) was “mixed mode inhibitor”. Further, the “K'i (uncompetitive component, from intercept plot)” value on yeast α-glucosidase (secondary plot of intercept vs [I], Figure 4S) came to 0.019 mM.

Regarding `C=C(C)[C@@H]1CC[C@]2(C(=O)N(C(=O)NC3CCCCC3)C3CCCCC3)CC[C@]3(C)[C@H](CC[C@@H]4[C@@]5(C)CC[C@H](O)C(C)(C)[C@@H]5CC[C@]43C)[C@@H]12` [Compound 2g], the melting point fell in the range of 193 to 194 °C. Moreover, in data set [1] (setting [5]), the half-maximal inhibitory concentration (IC50) was 0.23 ± 0.00011 mM. The molecule further yielded an IC50 in data set [2] greater than 3 mM. In addition, in data set [3], the IC50 was greater than 3 mM. Further, in data set [4], the IC50 is greater than 10 mM.
